We go through 7 molecules from patent US20240158466A1, “PEGYLATED P-SELECTIN INHIBITORS” (Beth Israel Deaconess Medical Center, Inc., priority 2021, published 2024).

In series [1] the target is T1, P-selectin (Homo sapiens, UniProt P16109).
T1 sequence (P16109 42-830): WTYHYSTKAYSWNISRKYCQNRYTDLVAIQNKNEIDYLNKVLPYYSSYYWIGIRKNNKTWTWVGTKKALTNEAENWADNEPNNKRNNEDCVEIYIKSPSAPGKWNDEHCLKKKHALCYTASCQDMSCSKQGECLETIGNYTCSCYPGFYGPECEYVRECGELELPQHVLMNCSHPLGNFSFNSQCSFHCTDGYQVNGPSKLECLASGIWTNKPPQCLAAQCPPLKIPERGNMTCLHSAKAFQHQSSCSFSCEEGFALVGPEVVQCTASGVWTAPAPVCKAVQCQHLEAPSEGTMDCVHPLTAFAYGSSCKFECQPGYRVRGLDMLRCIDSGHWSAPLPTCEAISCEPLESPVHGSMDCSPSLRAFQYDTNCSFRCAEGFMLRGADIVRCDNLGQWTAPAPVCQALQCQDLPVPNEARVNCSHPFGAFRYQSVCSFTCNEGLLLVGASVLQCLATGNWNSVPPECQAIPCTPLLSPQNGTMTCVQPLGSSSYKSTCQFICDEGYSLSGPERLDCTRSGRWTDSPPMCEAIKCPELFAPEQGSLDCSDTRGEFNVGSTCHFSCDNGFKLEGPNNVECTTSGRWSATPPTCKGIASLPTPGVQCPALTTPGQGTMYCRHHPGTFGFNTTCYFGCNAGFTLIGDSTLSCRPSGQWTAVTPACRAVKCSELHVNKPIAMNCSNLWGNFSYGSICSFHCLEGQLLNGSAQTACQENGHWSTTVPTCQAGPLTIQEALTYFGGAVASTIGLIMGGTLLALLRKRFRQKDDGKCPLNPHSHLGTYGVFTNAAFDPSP
As to conditions: synthetic P-selectin antagonists, literature refs 48,49; cited from earlier work.

Series [2] has as its target P-selectin on activated human platelets (human) (UniProt P16109). Kind of series: cell-based or functional assay.
In series [3] the target is P-selectin on activated mouse platelets (mouse) (UniProt Q01102). The experiment in a line: cell-based or functional assay.
The test system of the next series is vein recanalization. As to conditions: primate models; cited from earlier work.
The test system of a further series is venous thrombus. The experiment in a line: Murine model of non-occlusive venous thrombosis (electrolytic injury of inferior vena cava). Format: in vivo, C57BL/6 mice. As for the experimental part:
Enoxaparin was administered subcutaneously (6 mg/kg) 4 hours prior and 24 hours after electrolytic injury as a clinically relevant control. […] Venous side branches were ligated or cauterized, while posterior branches were left patent. A 25-gauge stainless steel needle, attached to a silver-coated copper wire was inserted into the exposed caudal vena cava and positioned against the anterior wall (anode). A second wire was implanted subcutaneously to complete the circuit (cathode) and a 250 μAmps current applied for 15 min. Subsequently, the needle was removed and a cotton swab held in gentle contact with the puncture site to prevent bleeding. The vena cava and associated thrombus, immediately below the renal veins to just above the bifurcation, was excised 48 hours after injury for determination of wet thrombus weight and histological examination. Specimens were fixed overnight in 10% neutral buffered formalin, processed for paraffin embedding, and 5 μm sections stained with hematoxylin and eosin (H&E) or antibodies specific to neutrophils (Ly-6G, BD Biosciences) and monocytes (CD68, Abeam, Cambridge, MA). The circumference of the vein wall was imaged at 20× magnification and leukocyte infiltration was quantified in 3 representative animals/group, 5 to 10 sections/tissue sample.

For another series, the system named is hemostasis. The experiment in a line: Tail vein transection bleeding time. Format: in vivo, mouse. As to conditions: PG-6 8 μmol/kg or enoxaparin (LMWH) 6 mg/kg intravenous, 5 min prior to transection. As for the experimental part:
Hemostasis was assessed using a tail vein transection model to determine bleeding time.^63 Mice were anesthetized with ketamine and xylazine by intraperitoneal injection and placed on a warming mat at 37° C. Sterile saline, enoxaparin (6 mg/kg), or PG-6 in 125 μL of sterile saline was injected into the penile vein. Five minutes after administration of test compound, the lateral tail vein was transected with a number 11 scalpel blade at a tail width of 2.3 mm and immediately submerged in 37° C. phosphate buffered saline. The bleeding time was determined at that instant when bleeding had ceased for 30 seconds. Animals were excluded if arterial bleeding was present.

For series [4], the system named is platelet-monocyte aggregation. As to conditions: humans; cited from earlier work.
Another series relates to thrombus. As to conditions: mice; cited from earlier work.
Another series relates to vein wall injury. As to conditions: rats; cited from earlier work.
The target of series [5] is T1, P-selectin. The note with it: cited from earlier work.
For series [6] the following is noted: high affinity biologics; cited from earlier work.

P-selectin on activated mouse platelets (mouse), sequence (Q01102 42-768): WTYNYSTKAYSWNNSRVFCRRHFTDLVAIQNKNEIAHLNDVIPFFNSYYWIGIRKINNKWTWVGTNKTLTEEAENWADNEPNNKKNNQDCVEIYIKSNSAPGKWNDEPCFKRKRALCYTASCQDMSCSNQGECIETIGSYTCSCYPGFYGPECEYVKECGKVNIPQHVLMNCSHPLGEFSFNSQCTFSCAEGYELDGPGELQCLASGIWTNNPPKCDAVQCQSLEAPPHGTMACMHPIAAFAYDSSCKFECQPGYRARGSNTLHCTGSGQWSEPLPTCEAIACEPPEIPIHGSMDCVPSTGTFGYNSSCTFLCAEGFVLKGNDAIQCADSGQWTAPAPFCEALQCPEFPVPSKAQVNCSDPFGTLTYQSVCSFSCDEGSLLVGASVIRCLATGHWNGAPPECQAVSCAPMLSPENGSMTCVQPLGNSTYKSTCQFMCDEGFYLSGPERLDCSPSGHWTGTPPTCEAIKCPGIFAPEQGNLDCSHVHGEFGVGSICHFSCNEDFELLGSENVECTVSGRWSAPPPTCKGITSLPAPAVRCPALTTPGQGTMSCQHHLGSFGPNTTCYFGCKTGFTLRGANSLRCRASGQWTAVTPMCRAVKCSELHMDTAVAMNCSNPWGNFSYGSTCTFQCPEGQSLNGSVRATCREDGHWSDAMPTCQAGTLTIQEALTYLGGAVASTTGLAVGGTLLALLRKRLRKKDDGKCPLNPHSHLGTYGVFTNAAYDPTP

The IC50 is the concentration needed to halve the response being measured. Turning to `C[C@@H]1O[C@@H](O[C@@H]2[C@@H](NC(=O)c3cc(=O)[nH]c(=O)[nH]3)C[C@@H](C(=O)NCCNC(=O)COCCOCC(=O)Nc3cc(S(=O)(=O)O)cc4cc(S(=O)(=O)O)cc(S(=O)(=O)O)c34)C[C@H]2O[C@@H]2O[C@H](CO)[C@H](O)[C@H](O[C@@H](CC3CCCCC3)C(=O)O)[C@H]2OC(=O)c2ccccc2)[C@@H](O)[C@H](O)[C@@H]1O` [GMI-1070], the IC50 on P-selectin [1] is 423 µM.
In [2], PEG40-GSnP-6 (PG-6) (peptide) came in with a human platelet-monocyte aggregates (flow cytometry, whole blood, PG-6 120 uM) of 29 % reduction and a human platelet-neutrophil aggregates (flow cytometry, whole blood, PG-6 120 uM) of 42 % reduction. In series [3], the murine platelet-monocyte aggregates (flow cytometry, whole blood, PG-6 120 uM) turned out to be 45 % reduction and the murine platelet-neutrophil aggregates (flow cytometry, whole blood, PG-6 120 uM) came out at 38 % reduction.
As to `O=C(O)c1c(O)c(C2(c3ccc(Cl)cc3)CC2)nc2c(C(F)(F)F)cccc12` [PSI-421, 2-[1-(4-chlorophenyl)cyclopropyl]-3-hydroxy-8-(trifluoromethyl)quinoline-4-carboxylic acid], in the series on vein recanalization, the vein recanalization result is “enhanced”.
For the molecule enoxaparin, in the series with venous thrombus (48 h after electrolytic injury, PG-6 8 μmol/kg IV, LMWH 6 mg/kg SC), the “thrombus formation / thrombus weight vs saline vehicle” value is given as “significant reduction”. In addition, in the series on venous thrombus (48 h after thrombus induction), the “infiltrating CD68+ macrophages in vein wall” value is recorded as “significant reduction” and the “infiltrating Ly6G+ neutrophils in vein wall” value is on record as “significant reduction”. The “tail vein transection bleeding time” value in the series with hemostasis was “prolonged”. In the series on hemostasis (listed as LMWH), the “tail vein transection bleeding time” value was “significant increase”.
`O=C(O)c1c(O)c(Cc2ccc(Cl)cc2)nc2c3c(ccc12)CCCC3` [PSI-697]: the “inhibition of platelet-monocyte aggregation in a phase I trial” value in series [4] is “failed to inhibit”. Further, in the series on thrombus, the thrombus weight result was “reduced”. The “wall stiffness, neointima formation, extravasation of inflammatory cells” value in the series on vein wall injury is “decreased”. The vein recanalization entry in the series with vein recanalization is reported as “enhanced”.

B1: crizanlizumab: the only approved P-selectin inhibitor, an antibody (antibody, chains of the INN, looked up, V domains shown)
VH: QVQLVQSGAEVKKPGASVKVSCKVSGYTFTSYDINWVRQAPGKGLEWMGWIYPGDGSIKYNEKFKGRVTMTVDKSTDTAYMELSSLRSEDTAVYYCARRGEYGNYEGAMDYWGQGTLVTVSS
VL: DIQMTQSPSSLSASVGDRVTITCKASQSVDYDGHSYMNWYQQKPGKAPKLLIYAASNLESGVPSRFSGSGSGTDFTLTISSLQPEDFATYYCQQSDENPLTFGGGTKVEIK
As to B1, the “Kd for P-selectin (in words)” value in the series with P-selectin [5] (approved antibody) is on record as “low nanomolar range”. Also, the t1/2 in [6] is listed as 10.6 days.

B2: PSGL-1: P-selectin glycoprotein ligand-1, native cognate ligand of P-selectin (protein, UniProt Q14242 42-412, looked up)
P-selectin glycoprotein …: QATEYEYLDYDFLPETEPPEMLRNSTDTTPLTGPGTPESTTVEPAARRSTGLDAGGAVTELTTELANMGNLSTDSAAMEIQTTQPAATEAQTTQPVPTEAQTTPLAATEAQTTRLTATEAQTTPLAATEAQTTPPAATEAQTTQPTGLEAQTTAPAAMEAQTTAPAAMEAQTTPPAAMEAQTTQTTAMEAQTTAPEATEAQTTQPTATEAQTTPLAAMEALSTEPSATEALSMEPTTKRGLFIPFSVSSVTHKGIPMAASNLSVNYPVGAPDHISVKQCLLAILILALVATIFFVCTVVLAVRLSRKGHMYPVRNYSPTEMVCISSLLPDGGEGPSATANGGLSKAKSPGLTPEPREDREGDDLTLHSFLP
As a reminder, the Kd is a measure of binding affinity in units of concentration. On to B2, for which the Kd with P-selectin [5] (reported values) was 0.07 to 0.3 µM.
